Measured values taken from patent US11236044B2, “Selective inhibitors of 12(S)-lipoxygenase (12-LOX) and methods for use of the same” (THE REGENTS OF THE UNIVERSITY OF MICHIGAN, priority 2018, dated 2022).
Like-named read-outs stand apart in the source and are kept apart here.

Key:
[1] = Pharmacokinetic study of the inhibitors in mice blood plasma (PO and IV); assay type: in vivo; conditions: for concentration at 2 h / concentration at 4 h / concentration at 7 h: mouse, plasma, 30 mg/kg
Description: Pharmacokinetic Study of the Inhibitors in Mice Blood Plasma
The blood plasma concentration of compounds A1, A2, and A4 in mice was determined following per os, oral compound administration (“PO”) and intravenous (“IV”) administration
Calibration curve. The concentration range was evaluated from 2.5-5000 ng/ml for compound A2, 1-5000 ng/ml for compound A4, and 5-5000 ng/ml for compound A1. The curve was built with linear regression with weighing (1/X2). The linear regression analysis was performed by plotting the peak area ratio (y) against the concentration (x) in ng/mL.
Instrument Conditions. The LC-MS and mass spectrometry conditions for the compounds tested are shown below.
Results. The individual and average compound A1, A2, and A4 concentration-time data for IV and PO dosed groups are listed in Table 1, and graphically presented in FIG. 1.

[2] = system: platelet accumulation in the lung (FcγRIIa-mediated platelet activation); experiment: Anti-GPIX-induced HITT model for lung thrombosis; assay type: in vivo, transgenic mice expressing the human FcγRIIa receptor; conditions: 15 mg/kg oral gavage, four hours following HITT induction, versus PEG vehicle; FIG. 5
Description: Adult transgenic mice (10-12 weeks old) expressing the human FcγRIIa receptor on their platelets were anesthetized as described above and were orally gavaged with 15 mg/kg of A1 or control vehicle 30-minutes prior to IV bolus injection of 0.75 mg/kg anti-GPIX to induce activation of the FcγRIIa receptor on the platelets to mimic heparin-induced thrombocytopenia and thrombosis (“HITT”) in the mouse. The anti-GPIX antibody was conjugated to DyLight 488 to visualize its binding to platelets and platelet accumulation in the lung. 4 hours post-anti-GPIX induction, the animals were sacrificed and the lungs were visualized using the Li—COR Odyssey imager.
Representative images of platelet accumulation (green) in the mouse lungs from control (PEG vehicle) and A1-treated (15 mg/kg) mice are shown in FIG. 5

[3] = system: thrombus formation in cremaster arterioles; experiment: Laser-induced cremaster arteriole thrombosis model; assay type: in vivo; conditions: WT mice, 3 mg/kg oral, twice a day for 2 days, versus PEG control; FIG. 4
Description: C57BL/6 wild-type (WT) control mice were purchased from Jackson Laboratories (Bar Harbor, Me., USA) and housed in the research facility at the University of Michigan. Compound A1 was synthesized and specifically formulated in Polyethylene Glycol 300 (PEG 300) for oral gavage dosing in mice for in vivo thrombosis and hemostasis studies. For laser-induced cremaster arteriole thrombosis model, mice were treated with compound A1 (3 mg/kg) or with PEG 300 via oral administration 2 times per day for 2 days prior to intravital microscopy studies on the third day.
Adult mice (10-12 weeks old) were anesthetized as described above and surgically prepared as described in detail, and a tracheal tube was inserted to facilitate breathing. The cremaster muscle was prepared and perfused with preheated bicarbonate-buffered saline throughout the experiment. DyLight 488-conjugated rat anti-mouse platelet GP1b8 antibody (0.1 μg/g; EMFRET Analytics) and Alexa Fluor 647-conjugated anti-fibrin (0.3 μg/g) or Alexa Flour 647 rat-anti mouse CD62P (3 μg/mouse) were administered by a jugular vein cannula prior to vascular injury. […] All captured images were analyzed for the change of fluorescent intensity over the course of thrombus formation after subtracting fluorescent background defined on an uninjured section of the vessel using the Slidebook program. […]

[4] = iv, IV 30 mg/kg, n=3 (outliers excluded), read-out: Concentration in Plasma, Mean
[5] = iv, IV 30 mg/kg, read-out: Concentration in Plasma, Mouse 1
[6] = iv, IV 30 mg/kg, read-out: Concentration in Plasma, Mouse 2
[7] = iv, IV 30 mg/kg, read-out: Concentration in Plasma, Mouse 3
[8] = po, PO 30 mg/kg, n=3 (outliers excluded), read-out: Concentration in Plasma, Mean
[9] = po, PO 30 mg/kg, read-out: Concentration in Plasma, Mouse 1
[10] = po, PO 30 mg/kg, read-out: Concentration in Plasma, Mouse 2
[11] = po, PO 30 mg/kg, read-out: Concentration in Plasma, Mouse 3

Question: Which “Concentration in Plasma, Mouse 2” value ([1]; PO 30 mg/kg, 2 h) does the source give for `COc1cccc(CNc2ccc(S(=O)(=O)Nc3cccc(Cl)c3)cc2)c1O` [Compound A1, N-(3-chlorophenyl)-4-((2-hydroxy-3-methoxybenzyl)amino) benzenesulfonamide] here?
Answer: The value was “*899.2 ng/ml”.

Question: And the concentration at 2 h ([1]; iv, IV 30 mg/kg, 2 h, n=3 (outliers excluded), read-out: Concentration in Plasma, Mean)?
Answer: Its concentration at 2 h is 77.4 ng/mL.

Question: What about the concentration at 2 h ([1]; iv, IV 30 mg/kg, 2 h, read-out: Concentration in Plasma, Mouse 1) of the same compound?
Answer: Its concentration at 2 h is 69.6 ng/mL.

Question: What about the concentration at 2 h ([1]; iv, IV 30 mg/kg, 2 h, read-out: Concentration in Plasma, Mouse 2) of the same compound?
Answer: The concentration at 2 h was 124 ng/mL.

Question: What about the concentration at 2 h ([1]; iv, IV 30 mg/kg, 2 h, read-out: Concentration in Plasma, Mouse 3) of the same compound?
Answer: The concentration at 2 h was 38.8 ng/mL.

Question: What about the concentration at 4 h [1, 4] of the same compound?
Answer: The concentration at 4 h was 29.2 ng/mL.

Question: What about the concentration at 4 h [1, 5] of the same compound?
Answer: The concentration at 4 h was 46.4 ng/mL.

Question: And the concentration at 4 h [1, 6]?
Answer: Its concentration at 4 h is 20.2 ng/mL.

Question: And the concentration at 4 h [1, 7]?
Answer: The concentration at 4 h was 20.9 ng/mL.

Question: And the concentration at 7 h [1, 4]?
Answer: The concentration at 7 h was 16.9 ng/mL.

Question: What about the concentration at 7 h [1, 5] of the same compound?
Answer: The concentration at 7 h was 36.5 ng/mL.

Question: What about the concentration at 7 h [1, 6] of the same compound?
Answer: Its concentration at 7 h is 5.9 ng/mL.

Question: What about the concentration at 7 h [1, 7] of the same compound?
Answer: The concentration at 7 h was 8.3 ng/mL.

Question: What about the concentration at 2 h ([1]; po, PO 30 mg/kg, 2 h, n=3 (outliers excluded), read-out: Concentration in Plasma, Mean) of the same compound?
Answer: Its concentration at 2 h is 40.4 ng/mL.

Question: What about the concentration at 2 h ([1]; po, PO 30 mg/kg, 2 h, read-out: Concentration in Plasma, Mouse 1) of the same compound?
Answer: The concentration at 2 h was 21 ng/mL.

Question: What about the concentration at 2 h ([1]; po, PO 30 mg/kg, 2 h, read-out: Concentration in Plasma, Mouse 3) of the same compound?
Answer: Its concentration at 2 h is 59.7 ng/mL.

Question: What about the concentration at 4 h [1, 8] of the same compound?
Answer: Its concentration at 4 h is 52.9 ng/mL.

Question: What about the concentration at 4 h [1, 9] of the same compound?
Answer: The concentration at 4 h was 48.9 ng/mL.

Question: And the concentration at 4 h [1, 10]?
Answer: Its concentration at 4 h is 89.8 ng/mL.

Question: What about the concentration at 4 h [1, 11] of the same compound?
Answer: Its concentration at 4 h is 20 ng/mL.

Question: And the concentration at 7 h [1, 8]?
Answer: Its concentration at 7 h is 15.2 ng/mL.

Question: And the concentration at 7 h [1, 9]?
Answer: The concentration at 7 h was 12.1 ng/mL.

Question: What about the concentration at 7 h [1, 10] of the same compound?
Answer: The concentration at 7 h was 24.1 ng/mL.

Question: And the concentration at 7 h [1, 11]?
Answer: Its concentration at 7 h is 9.3 ng/mL.

Question: And the “thrombocytopenia and thrombosis (platelet accumulation) in mouse lungs” value [2]?
Answer: The value was “inhibit thrombocytopenia and thrombosis in mouse lungs”.

Question: What about the “thrombus formation (platelet accumulation and fibrin formation) in cremaster arterioles” value [3] of the same compound?
Answer: The value was “impairs thrombus formation”.
